Experimental data: patent publication US20240376108A1, “SALT AND CRYSTAL FORM OF PYRAZOLE-CONTAINING POLYCYCLIC DERIVATIVE, AND PREPARATION METHOD THEREFOR AND USE THEREOF” (Shanghai Hansoh Biomedical Co., Ltd., priority 2021, published 2024)

Tests used:
[1] = Solid stability experiment (high temperature, high humidity, high temperature and high humidity); type: physicochemical
Experimental: 4.1.1 Experimental objective: To investigate the physical and chemical stability of the crystal form of the compound under the conditions of high temperature, high humidity, as well as high temperature and high humidity, so as to provide a basis for crystal form screening and storage of the crystal form of the compound.
The content of the salt was determined by HPLC using the external standard method, and the change of relevant substances was calculated by using the chromatographic peak area normalization method.

[2] = Hygroscopicity experiment (DVS); type: physicochemical
Outline: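 Hygroscopic weight gain (%) measured after each salt's crystal form reached dynamic equilibrium with water vapour at various relative humidities, by dynamic vapour sorption.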

[3] = Pharmacokinetic assay of the salt forms in rats (10 mg/kg); type: in vivo; conditions: SD rats
Experimental: 2.3 Pharmacokinetic assay of the methanesulfonate in rats
2.3.1. Study objective: SD rats were used as test animals. The pharmacokinetic behavior of various salt forms of 2-(2-cyano-5-oxo-8-(trifluoromethyl)pyrazolo[1,5-a]pyrido[3,2-e]pyrimidin-4(5H)-yl)-N-(5-fluoropyridin-2-yl)acetamide was studied in rat body (plasma) by orally administration at a dose of 10 mg/kg.
2.3.2.4 Administration: After an overnight fast, male SD rats (3 rats per group) were administered p.o. with the test compound at a dose of 10 mg/kg and a volume of 10 mL/kg.
2.3.2.5 Sample collection: 0.2 mL of blood was taken from the jugular vein of the rat before administration and at 0, 0.5, 1, 2, 4, 6, 8 and 24 hours after administration. The samples were stored in EDTA-K2 tubes, and centrifuged for 6 minutes at 4° C., 6000 rpm to separate the plasma. The plasma samples were stored at −80° C.
1) 160 μL of acetonitrile was added to 40 μL of the plasma sample for precipitation, and then the mixture was centrifuged at 3500×g for 5 to 20 minutes.
2) After the above process, 100 μL of the supernatant was taken to analyze the concentration of the test compound by LC/MS/MS.
2.3.2.7 Liquid chromatography analysis • Liquid chromatography condition: Shimadzu LC-20AD pump • Mass spectrometry condition: AB Sciex API 4000 mass spectrometer • Chromatographic column: phenomenex Gemiu 5 um C18 50×4.6 mm • Mobile phase: Eluent A was 0.1% formic acid in water, and Eluent B was acetonitrile • Flow rate: 0.8 mL/min • Elution time: 0-4.0 minutes, the eluent is as follows:
The main parameters of pharmacokinetics were calculated by WinNonlin 8.2.

[4] = Solubility experiment in different media; type: physicochemical; conditions: for solubility at 24 h: thermodynamic from solid
Experimental: The vials were placed on a spin mixer overnight at room temperature. After 24 hours, the sample solution was filtered through a 0.45 μm mixed aqueous fiber membrane. The content of the compound in the filtrate was determined by HPLC. [table]

[5] = Thermodynamic stability experiment (polymorphism screening of the methanesulfonate); type: physicochemical; conditions: pulped in solvents at 35° C. for 24 hours, XRPD
Experimental: 6.1 Polymorphism screening of the methanesulfonate of compound 2-(2-cyano-5-oxo-8-(trifluoromethyl)pyrazolo[1,5-a]pyrido[3,2-e]pyrimidin-4(5H)-yl)-N-(5-fluoropyridin-2-yl)acetamide
The mixture was magnetically pulped in a metal bath at 35° C. for 24 hours, and centrifuged. The resulting solid was dried, and the XRPD thereof was determined.

[6] = High humidity (92.5% RH), Day 7
[7] = High humidity (92.5% RH), Day 14
[8] = High temperature (60° C.), Day 7
[9] = High temperature (60° C.), Day 14
[10] = High temperature and high humidity (50° C.&75% RH), Day 7
[11] = High temperature and high humidity (50° C.&75% RH), Day 14
[12] = Cycle 1, target relative humidity 0.0%, 25° C.
[13] = Cycle 1, target relative humidity 10.0%, 25° C.
[14] = Cycle 1, target relative humidity 20.0%, 25° C.
[15] = Cycle 1, target relative humidity 30.0%, 25° C.
[16] = Cycle 1, target relative humidity 40.0%, 25° C.
[17] = Cycle 1, target relative humidity 50.0%, 25° C.
[18] = Cycle 1, target relative humidity 60.0%, 25° C.
[19] = Cycle 1, target relative humidity 70.0%, 25° C.
[20] = Cycle 1, target relative humidity 80.0%, 25° C.
[21] = Cycle 1, target relative humidity 90.0%, 25° C.
[22] = Cycle 1, target relative humidity 95.0%, 25° C.
[23] = Cycle 2, target relative humidity 0.0%, 25° C.
[24] = Cycle 2, target relative humidity 10.0%, 25° C.
[25] = Cycle 2, target relative humidity 20.0%, 25° C.
[26] = Cycle 2, target relative humidity 30.0%, 25° C.
[27] = Cycle 2, target relative humidity 40.0%, 25° C.
[28] = Cycle 2, target relative humidity 50.0%, 25° C.
[29] = Cycle 2, target relative humidity 60.0%, 25° C.
[30] = Cycle 2, target relative humidity 70.0%, 25° C.
[31] = Cycle 2, target relative humidity 80.0%, 25° C.
[32] = Cycle 2, target relative humidity 90.0%, 25° C.
[33] = Cycle 2, target relative humidity 95.0%, 25° C.

SMILES: CS(=O)(=O)O.N#Cc1cc2n(CC(=O)Nc3ccc(F)cn3)c(=O)c3ccc(C(F)(F)F)nc3n2n1 [Methanesulfonate (crystal form A), 2-(2-cyano-5-oxo-8-(trifluoromethyl)pyrazolo[1,5-a]pyrido[3,2-e]pyrimidin-4(5H)-yl)-N-(5-fluoropyridin-2-yl)acetamide methanesulfonate]
- solid stability under high temperature and high humidity ([1]; 50° C.&75% RH, 7 and 14 days): stable
- solid stability under high temperature ([1]; 60° C., 7 and 14 days): stable
- solid stability under high humidity ([1]; 92.5% RH, 7 and 14 days): stable
- % increase of total impurities [1, 6]: <0.1%
- % maximum increase of single impurity [1, 6]: <0.1%
- % increase of total impurities [1, 7]: <0.1%
- % maximum increase of single impurity [1, 7]: <0.1%
- % increase of total impurities [1, 8]: <0.2%
- % maximum increase of single impurity [1, 8]: <0.1%
- % increase of total impurities [1, 9]: <0.1%
- % maximum increase of single impurity [1, 9]: <0.1%
- % increase of total impurities [1, 10]: <0.1%
- % maximum increase of single impurity [1, 10]: <0.1%
- % increase of total impurities [1, 11]: <0.1%
- % maximum increase of single impurity [1, 11]: <0.1%
- hygroscopicity (Chinese Pharmacopoeia description) ([2]; 25° C., relative humidity 80%): slightly hygroscopic
- hygroscopic weight gain ([2]; 80% relative humidity): ≤ 0.5%
- % percentage of mass change, Desorption [2, 12]: −0.029%
- % percentage of mass change, Sorption [2, 12]: 0.000%
- % percentage of mass change, Desorption [2, 13]: 0.030%
- % percentage of mass change, Sorption [2, 13]: 0.051%
- % percentage of mass change, Desorption [2, 14]: 0.082%
- % percentage of mass change, Sorption [2, 14]: 0.096%
- % percentage of mass change, Desorption [2, 15]: 0.133%
- % percentage of mass change, Sorption [2, 15]: 0.138%
- % percentage of mass change, Desorption [2, 16]: 0.190%
- % percentage of mass change, Sorption [2, 16]: 0.179%
- % percentage of mass change, Desorption [2, 17]: 0.253%
- % percentage of mass change, Sorption [2, 17]: 0.222%
- % percentage of mass change, Desorption [2, 18]: 0.320%
- % percentage of mass change, Sorption [2, 18]: 0.272%
- % percentage of mass change, Desorption [2, 19]: 0.395%
- % percentage of mass change, Sorption [2, 19]: 0.340%
- % percentage of mass change, Desorption [2, 20]: 0.502%
- % percentage of mass change, Sorption [2, 20]: 0.446%
- % percentage of mass change, Desorption [2, 21]: 0.760%
- % percentage of mass change, Sorption [2, 21]: 0.700%
- % percentage of mass change, Desorption [2, 22]: 1.109%
- % percentage of mass change, Sorption [2, 22]: 1.109%
- % percentage of mass change, Desorption [2, 23]: −0.046%
- % percentage of mass change, Sorption [2, 23]: −0.029%
- % percentage of mass change, Desorption [2, 24]: 0.014%
- % percentage of mass change, Sorption [2, 24]: 0.024%
- % percentage of mass change, Desorption [2, 25]: 0.067%
- % percentage of mass change, Sorption [2, 25]: 0.073%
- % percentage of mass change, Desorption [2, 26]: 0.118%
- % percentage of mass change, Sorption [2, 26]: 0.118%
- % percentage of mass change, Desorption [2, 27]: 0.177%
- % percentage of mass change, Sorption [2, 27]: 0.162%
- % percentage of mass change, Desorption [2, 28]: 0.241%
- % percentage of mass change, Sorption [2, 28]: 0.209%
- % percentage of mass change, Desorption [2, 29]: 0.305%
- % percentage of mass change, Sorption [2, 29]: 0.263%
- % percentage of mass change, Desorption [2, 30]: 0.378%
- % percentage of mass change, Sorption [2, 30]: 0.331%
- % percentage of mass change, Desorption [2, 31]: 0.480%
- % percentage of mass change, Sorption [2, 31]: 0.433%
- % percentage of mass change, Desorption [2, 32]: 0.734%
- % percentage of mass change, Sorption [2, 32]: 0.675%
- % percentage of mass change, Desorption [2, 33]: 1.076%
- % percentage of mass change, Sorption [2, 33]: 1.076%
- exposure AUC and maximum plasma concentration Cmax compared with the free base ([3]; 10 mg/kg): superior
- AUC(0-t) ([3]; male, rat, po, p.o. 10 mg/kg, plasma, vehicle 0.5% HPMC, read-out: Area under curve AUC0-t): 25800 ng·h/mL
- MRT inf ([3]; male, rat, po, p.o. 10 mg/kg, plasma, vehicle 0.5% HPMC, read-out: Average residence time MRT0-∞): 4.8 h
- half-life ([3]; male, rat, po, p.o. 10 mg/kg, plasma, vehicle 0.5% HPMC, read-out: Half life t1/2 (converted)): 2.7 h
- Tmax ([3]; male, rat, po, p.o. 10 mg/kg, plasma, vehicle 0.5% HPMC, read-out: Peak time tmax): 4 h
- Cmax ([3]; male, rat, po, p.o. 10 mg/kg, plasma, vehicle 0.5% HPMC, read-out: Plasma concentration Cmax): 3320 ng/mL
- solubility at 24 h ([4]; aqueous buffer, USP Buffer pH 3, room temperature): 4.3 µg/mL
- solubility at 24 h ([4]; aqueous buffer, USP Buffer pH 4, room temperature): 3.6 µg/mL
- solubility at 24 h ([4]; aqueous buffer, USP Buffer pH 5, room temperature): 3 µg/mL
- solubility at 24 h ([4]; aqueous buffer, USP Buffer pH 6, room temperature): 2.4 µg/mL
- solubility at 24 h ([4]; aqueous buffer, USP Buffer pH 7, room temperature): 2.2 µg/mL
- solubility at 24 h ([4]; aqueous buffer, USP Buffer pH 8, room temperature): 1.8 µg/mL
- solubility at 24 h ([4]; fassgf or other biorelevant, FaSSGF, room temperature): 3.3 µg/mL
- solubility at 24 h ([4]; pure water, water, H2O, room temperature): 1.9 µg/mL
- solubility in the corresponding media compared with crystal form II of the free base ([4]; room temperature, 24 hours, buffers, FaSSGF, FaSSIF, FeSSIF, water): increased by more than four times
- solubility at 24 h ([4]; simulated gastric fluid, USP Buffer pH 1, room temperature): 2.3 µg/mL
- solubility at 24 h ([4]; simulated gastric fluid, USP Buffer pH 2, room temperature): 2.3 µg/mL
- solubility at 24 h ([4]; FaSSIF, room temperature): 7.8 µg/mL
- solubility at 24 h ([4]; FeSSIF, room temperature): 11.3 µg/mL
- thermodynamic stability of the crystal form [5]: thermodynamically stable crystal form
